The subject of one assay is platelet function. The note with it: cited from earlier work.
The test system of assay [1] is NF-κB. Kind of assay: NF-κB nuclear membrane translocation, EMSA, LPS-treated NR8383 cells. The note with it: Rattus norvegicus. Format: cell-based. The procedure:
Experiments measuring test agents effect on NF-κB nuclear membrane translocation were performed with NR8383 cells, which are transformed rat alveolar macrophages. […] In addition, some compounds were tested at doses of 10 and 30 μM. Untreated control cells and cells treated with LPS alone were tested in each experiment. Cells were harvested 6 hours after treatment. Nuclear proteins were extracted, frozen and quantified using the Bradford assay. Electrophoretic mobility shift assays (EMSA) were subsequently analyzed using a radiolabeled NF-κB probe. Nuclear proteins were reacted with the radiolabeled probe, run on a 5% polyacrylamide gel, and subjected to autoradiography. Specificity of protein binding for the NF-κB binding site was assayed by cold and nonspecific competition using the LPS treated sample in each experiment. All EMSA were duplicated at least once to verify results. Laser densitometry of NF-κB bands was done on autoradiographs to quantify NF-κB binding activity.
For orientation: Mobility shift assays separate free from complexed probe on a gel.

Assay [2] deals with NF-κB. Particulars: cited from earlier work.
For the next assay, the system named is LTB4 production. Particulars: stimulated macrophages; read-out: Inhibition of LTB4 production IC50; cited from earlier work.
The next assay concerns PGE2 production. The note with it: stimulated macrophages; read-out: Inhibition of PGE2 production IC50; cited from earlier work.
Another assay deals with platelet aggregation. The note with it: read-out: AA-induced platelet aggregation (AAIPA) IC50; cited from earlier work.
For assay [3], the target named is T1, Cyclooxygenase-1 (cyclooxygenase from ram seminal vesicles) (Ovis aries, UniProt P05979).
T1 construct: cyclooxygenase from ram seminal vesicles; from tissue; host or cells: ram seminal vesicles
T1 sequence (P05979 25-600): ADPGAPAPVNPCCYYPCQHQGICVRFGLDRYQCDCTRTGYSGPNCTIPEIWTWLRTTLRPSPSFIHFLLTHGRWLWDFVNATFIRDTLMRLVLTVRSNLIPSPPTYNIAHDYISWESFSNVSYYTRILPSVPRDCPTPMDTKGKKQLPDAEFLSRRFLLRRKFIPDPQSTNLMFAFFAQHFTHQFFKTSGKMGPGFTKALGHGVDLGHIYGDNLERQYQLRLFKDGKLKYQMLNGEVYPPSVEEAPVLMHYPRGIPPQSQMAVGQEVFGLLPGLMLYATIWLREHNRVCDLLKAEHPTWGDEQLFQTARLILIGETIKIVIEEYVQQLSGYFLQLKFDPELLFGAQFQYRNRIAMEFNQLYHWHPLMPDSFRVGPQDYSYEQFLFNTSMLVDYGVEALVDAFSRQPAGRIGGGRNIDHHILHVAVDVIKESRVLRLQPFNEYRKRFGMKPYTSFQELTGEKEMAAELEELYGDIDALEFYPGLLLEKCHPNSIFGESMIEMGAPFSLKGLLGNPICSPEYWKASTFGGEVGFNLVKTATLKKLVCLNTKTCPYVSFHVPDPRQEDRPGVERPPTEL
Kind of assay: Cyclooxygenase-1 screen (COX-1). The class given is biochemical. The note with it: 300 μM.

For assay [4], the target named is T2, Cyclooxygenase-2 (prostaglandin H synthetase-2) from sheep placenta (Ovis aries, UniProt P79208).
T2 construct: cyclooxygenase-2 from sheep placenta; from tissue; host or cells: sheep placenta
T2 sequence (P79208 17-603): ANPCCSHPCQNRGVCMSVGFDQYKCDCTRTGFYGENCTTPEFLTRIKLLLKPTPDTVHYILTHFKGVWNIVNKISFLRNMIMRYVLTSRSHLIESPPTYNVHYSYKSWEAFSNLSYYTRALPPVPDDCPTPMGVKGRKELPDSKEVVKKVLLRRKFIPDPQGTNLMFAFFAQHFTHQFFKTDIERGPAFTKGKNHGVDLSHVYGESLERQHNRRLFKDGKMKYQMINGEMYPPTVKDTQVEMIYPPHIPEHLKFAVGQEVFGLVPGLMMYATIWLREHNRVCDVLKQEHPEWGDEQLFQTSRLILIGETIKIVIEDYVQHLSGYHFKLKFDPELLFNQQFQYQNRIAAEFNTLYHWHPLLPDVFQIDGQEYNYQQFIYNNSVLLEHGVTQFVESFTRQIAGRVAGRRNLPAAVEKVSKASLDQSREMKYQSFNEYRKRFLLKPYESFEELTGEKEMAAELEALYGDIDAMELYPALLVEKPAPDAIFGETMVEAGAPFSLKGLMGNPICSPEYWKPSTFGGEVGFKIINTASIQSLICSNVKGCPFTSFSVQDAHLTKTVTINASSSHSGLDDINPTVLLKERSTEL
The experiment in a line: Cyclooxygenase-2 screen (COX-2). The class given is biochemical. The note with it: read-out: COX-2 percent inhibition.

The test system of assay [5] is Lipid peroxidation (rat liver microsomes). The experiment in a line: Lipid peroxidation screen (LPO), CCl4-induced, liver microsomes. The note with it: 300 μM. The class given is biochemical. For orientation: Microsomes from liver hold many membrane-bound enzymes, among them those of drug oxidation.
Assay [6] concerns the target T3, 5-Lipoxygenase (crude enzyme preparation from rat basophilic leukemia cells, RBL-1) (Rattus norvegicus, UniProt P12527).
T3 construct: crude enzyme preparation from rat basophilic leukemia cells (RBL-1); endogenous in cells; host or cells: rat basophilic leukemia cells (RBL-1)
T3 sequence (P12527 1-673): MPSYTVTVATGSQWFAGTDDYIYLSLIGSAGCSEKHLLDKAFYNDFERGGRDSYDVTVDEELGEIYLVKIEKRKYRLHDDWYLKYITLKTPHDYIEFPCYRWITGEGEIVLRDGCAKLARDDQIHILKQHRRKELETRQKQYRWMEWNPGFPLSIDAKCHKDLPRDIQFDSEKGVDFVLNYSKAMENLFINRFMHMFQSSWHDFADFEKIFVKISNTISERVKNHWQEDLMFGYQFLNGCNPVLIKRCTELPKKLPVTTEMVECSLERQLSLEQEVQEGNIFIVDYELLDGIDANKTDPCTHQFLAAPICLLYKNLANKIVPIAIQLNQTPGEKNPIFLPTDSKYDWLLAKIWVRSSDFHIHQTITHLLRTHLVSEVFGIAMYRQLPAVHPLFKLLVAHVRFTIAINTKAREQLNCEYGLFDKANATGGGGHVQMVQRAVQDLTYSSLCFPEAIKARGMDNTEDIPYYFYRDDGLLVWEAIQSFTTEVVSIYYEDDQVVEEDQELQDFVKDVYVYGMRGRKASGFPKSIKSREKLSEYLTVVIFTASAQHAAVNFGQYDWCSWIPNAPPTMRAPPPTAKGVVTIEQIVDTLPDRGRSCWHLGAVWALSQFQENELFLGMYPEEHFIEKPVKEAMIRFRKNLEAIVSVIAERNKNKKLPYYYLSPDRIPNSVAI
The experiment in a line: 5-Lipoxygenase screen (5-LO), 5-HETE by RIA. The class given is biochemical. Particulars: for inhibition at 30 µM: read-out: 5-LO percent inhibition; for inhibition at 1 µM: read-out: Percent inhibition of 5-LO, test conc. 1 μM (Table II).

The test system of assay [7] is Nuclear Factor-kappa B (NF-κB). The experiment in a line: NF-κB lacZ (κB-Z) reporter assay in transfected Jurkat cells stimulated with A23187 and PMA. Format: cell-based, human. The note with it: Homo sapiens; 10 μM; κB-Z Jurkat cells, A23187 and PMA (Table III); read-out: NF-κB percent inhibition. How it is done:
The human T lymphoid cell line Jurkat was transfected with a response element lacZ reporter in which transcription of the β-galactosidase gene is directed by the binding site for the NF-κB transcription factor. […] At the end of the incubation, the cells are spun down and resuspended in the buffer and FDG (fluorescein di-β-D-galactopyranoside) solution. The covered plates are further incubated in the dark for 16 hours at 25° C. […] Compounds were screened at 10 μM.

pIC50: −log10 of the molar value. Bounds are passed on as bounds.

What is called inhibition is the relative decrease from the control value, in per cent. The pIC50 is −log10 of the IC50, conventionally taken in molar units.

In the case of `O=C1OC(c2ccc(Cl)cc2)C(O)=C1O` (stereo not shown) [CHTA, 4-(4-chlorophenyl)-2-hydroxytetronic acid], the “Inhibition of platelet function” value in the assay on platelet function is recorded as “inhibits platelet function by a similar mechanism, involving arachidonic acid release”.

With `S=C(S)N1CCCC1` [Pyrrolidone dithiocarbamate (PDTC), Pyrrolidone dithiocarbamate], the inhibition at 10 µM with NF-κB [1] (10,000 nM, LPS 1 μg/ml, NR8383 cells, 6 hours) was 50%. The “Inhibition of H2O2 and extracellular cytokine-induced activation of NF-κB” value with NF-κB [2] is “inhibit both the H2 O2 and extracellular cytokine-induced activation of NF-κB in a concentration dependent manner”.

For `CCCCC/C=C\C/C=C\C/C=C\C/C=C\CC[C@@H]1OC(=O)C(O)=C1O` [(S)-3,4-dihydroxy-5[(all Z)-3,6,9,12-octadecatraenyl]-2 (5H)-furanone], the negative-log IC50 (pIC50) is 4.70 in the assay on LTB4 production, 4.70 in the assay on PGE2 production and more than 5.00 in the assay on platelet aggregation.

In the case of `C[C@@H]1C[C@H]2[C@@H]3CCC4=CC(=O)C=C[C@]4(C)[C@@]3(F)[C@@H](O)C[C@]2(C)[C@@]1(O)C(=O)CO` [Dexamethasone], the inhibition at 1 µM in the assay on NF-κB [1] (6 h, read-out: % Inhibition (NF-κB nuclear translocation)) is 60%.

In turn, `CC(C)Cc1ccc([C@@]2(C)OC(=O)C(O)=C2O)cc1` [Example 13, (R)-(-)-3,4-Dihydroxy-5-methyl-5-[4-(2-methylpropyl)phenyl]-2(5H)-furanone] registered a COX-1 percent inhibition in assay [3] of 12%. Besides, the inhibition at 300 µM in assay [4] was 14%. In addition, the LPO percent inhibition in assay [5] amounted to 76%. In addition, in [6], the inhibition at 30 µM was 102% and the inhibition at 1 µM was 59%. Further, the inhibition at 10 µM in assay [7] came to 49%.

On to `O=C1OC(CCSc2nc(-c3ccccc3)c(-c3ccccc3)o2)C(O)=C1O` (stereo not shown) [Example 24, 3,4-Dihydroxy-5-[2-(4,5-diphenyl-1,3-oxazole-2-thio)ethyl]-2(5H)-furanone], for which the COX-1 percent inhibition in assay [3] is on record as 76%. Besides, the inhibition at 300 µM in assay [4] stood at 68%. The LPO percent inhibition in [5] turned out to be 78%. Besides, in assay [6], the inhibition at 30 µM is 113% and the inhibition at 1 µM worked out at 71%. For the same compound, the inhibition at 10 µM in [7] was determined as 44%.

Turning to `O=C1OC(c2ccccc2)(c2ccccc2)C(O)=C1O` [Example 8, 3,4-Dihydroxy-5,5-diphenyl-2(5H)-furanone], the COX-1 percent inhibition in assay [3] is given as 15%. In addition, in [4], the inhibition at 300 µM is 17%. For the same compound, the LPO percent inhibition in assay [5] is on record as 70%. In addition, in assay [6], the inhibition at 30 µM amounted to 94% and the inhibition at 1 µM came to 15%. In addition, the inhibition at 10 µM in assay [7] was 33%.

Turning to `O=C1OC(CCC#Cc2ccc3ccccc3c2)C(O)=C1O` (stereo not shown) [Example 32, 3,4-Dihydroxy-5-[4-(2-naphthyl)-3-butynyl]-2(5H)-furanone], the COX-1 percent inhibition in assay [3] is on record as 34%. In addition, the inhibition at 300 µM in [4] was 23%. Also, the inhibition at 0.03 µM with NF-κB [1] (30 nM, LPS 1 μg/ml, NR8383 cells, 6 hours) is 90%. In assay [5], this compound showed an LPO percent inhibition of 75%. In addition, in assay [6], the inhibition at 30 µM was found to be 98% and the inhibition at 1 µM is 66%.

The values are drawn from patent US6262073A, “Pharmaceutical methods of use of 5-substituted and 5,5 disubstituted-3,4-dihydroxy-2(5H)-furanones” (Oxis International Inc., priority 2000, dated 2001).
